Results: patent publication US20210130339A1, “COMPOUNDS” (GLAXOSMITHKLINE INTELLECTUAL PROPERTY DEVELOPMENT LIMITED, priority 2017, published 2021)
Several values for one entry are separate records, joined by “and”; a condition that tells them apart may be missing. Equal entries are not always repeated.

Legend:
[1] = target: T1, Full length G2019 human LRRK2 (Homo sapiens, UniProt Q5S007); assay: Full length G2019 human LRRK2 Inhibition Mass Spectrometry assay; assay type: biochemical; details: LRRKtide substrate, RapidFire mass spectrometry; read-out: pIC50 in the Full length G2019 human LRRK2 Inhibition Mass Spectrometry assay (converted)
T1 construct: purified recombinant Full length Flag-LRRK2 in assay buffer; made in house; host or cells: HEK293 6E cells transduced with BacMam virus (virus generated in Sf9 cells)
Experimental: a. Full Length G2019 Human LRRK2 Inhibition Mass Spectrometry Assay
This assay for Leucine Rich Repeat Kinase 2 (LRRK2) inhibition is based on the direct measurement of the peptide ‘LRRKtide’ (LRRKtide: RLGRDKYKT*LRQIRQ and “*” refers to the site of phosphorylation.) and phosphorylated ‘LRRKtide’ using a high throughput RapidFire mass spectrometry assay. Inhibitors are compounds that reduce the conversion of LRRKtide to phospho-LRRKtide.
HEK293 6E cells were incubated in a 37° C. incubator with a humidified atmosphere of 5% CO2 on an orbital shaker rotating at 110 rpm. On the day of transduction, the cell viability was higher than 98% and the cell density was in the range of 1×10^6˜1.5×10^6 cells/ml. HEK293 6E cells were centrifuged at 1,000 rpm for 10 min, and then the cells were resuspended in fresh Freestyle 293 expression medium (Invitrogen:12338) with 0.1% F-68 (Invitrogen:24040-032) but without antibiotics (G418) at density of 1×10^6 cells/ml. BacMam virus with Flag-hu LRRK2 (genotypically normal) gene was centrifuged at 40,000 g for 2 hours, then resuspended in fresh Freestyle 293 expression medium. The resuspended virus was added into the cells in at MOI of 10. The cells were incubated in a 37° C. incubator with a humidified atmosphere of 5% CO2 in air on an orbital shaker rotating at 110 rpm. Cultures were harvested at approximately 48 hours post-transduction by centrifugation at 4,000 rpm for 20 min and pellets were frozen for purification.
The suspended cells were lysed by sonication on ice for 30 min (2 secs on/4 sec off, 20% amplitude), and centrifuged at 10,000 rpm for 30 minutes at 4° C. The supernatant was incubated with 1 mL per litre of cell culture of anti-Flag magnetic beads (Sigma-Aldrich: M8823) at 4° C. for 3 hours, then the beads were washed by 5 mL (5 column volume) binding buffer (50 mM Tris pH7.5@ 4C, 500 mM NaCl, 0.5 mM EDTA, 0.1% TritonX-100, 10% glycerol, freshly add 2 mM DTT) for three times. The Flag tagged LRRK2 proteins were eluted by Elution buffer (50 mM Tris pH7.5@ 4C, 500 mM NaCl, 0.5 mM EDTA, 0.1% TritonX-100, 10% glycerol, freshly add 2 mM DTT, 250 ug/ml Flag peptide (Sigma-Aldrich:F3290)) at 4° C. for 2 hours. Flag peptide was removed by Zeba Spin Desalting Columns, 7K MWCO (Thermo-Fisher: 89893) and the buffer of eluted LRRK2 proteins was exchanged into Storage Buffer (50 mM Tris pH7.5@4C, 150 mM NaCl, 0.5 mM EDTA, 0.02% Triton X-100, 2 mM DTT and 50% Glycerol) using Amicon Ultra Centrifugal Filter Units (100 kD) (Merck: UFC910096). Fractions containing LRRK2 proteins were pooled, aliquoted and stored at −80° C. Protein concentration was determined by Bradford protein assay, and protein purity was analyzed by NuPAG Novex 4-12% Bis-Tris Protein Gels (Invitrogen: NP0322BOX).
• 1) A 10 mM test compound was dissolved in 100% DMSO and serially diluted 1 in 4. 100 nL of this dilution series was then added to a 384 well, v bottom polypropylene plate, excluding columns 6 and 18. 100 nL of DMSO was added to columns 6 and 18 as controls wells. Assay dilution gave a top final assay concentration of test compound of 100 μM • 2) 50 μl of 1% formic acid in laboratory grade water was added to column 18 using a multidrop combi dispenser to act as a pre stopped assay control. • 3) 5 μl of ‘enzyme solution’ containing 50 nM of purified recombinant Full length Flag-LRRK2 in assay buffer (50 mM Hepes (pH 7.2), 10 mM MgCl2, 150 mM NaCl, 5% glycerol, 0.0025% triton X-100 and 1 mM DTT) was added to all wells using a multidrop combi dispenser, giving a final assay concentration of 25 nM LRRK2 enzyme. […] Test plates were then incubated for 30 minutes at room temperature. • 4) 5 μl ‘substrate solution’ containing 50 uM LRRKtide peptide substrate and 4 mM ATP was added to all wells of the plate using a multidrop combi dispenser giving a final assay concentration of 25 uM LRRKtide and 2 mM ATP. Test plates were then incubated for 1 hour at room temperature. […]

[2] = target: T2, recombinant full length LRRK2 (Homo sapiens, UniProt Q5S007); assay: Recombinant cellular LRRK2 AlphaScreen assay; assay type: cell-based; details: LRRK2 Ser935 phosphorylation, SH-SY5Y cells over-expressing recombinant full length LRRK2; read-out: pIC50 in the recombinant cellular LRRK2 AlphaScreen assay (converted)
T2 construct: A BacMam virus expressing full length recombinant LRRK2 was purchased from Invitrogen; host or cells: SH-SY5Y human neuroblastoma cells transduced with BacMam LRRK2 virus (MOI 50)
How it was run: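 SH-SY5Y neuroblastoma cells transduced with BacMam full-length human LRRK2 (MOI 50, 24 h) were treated with compounds for 60 min at 37 °C, top final 10 µM. Lysates probed by AlphaScreen for pSer935 versus total LRRK2; sigmoidal dose-response fit.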

T1 sequence (Q5S007 with tags, fused parts or gaps R50H): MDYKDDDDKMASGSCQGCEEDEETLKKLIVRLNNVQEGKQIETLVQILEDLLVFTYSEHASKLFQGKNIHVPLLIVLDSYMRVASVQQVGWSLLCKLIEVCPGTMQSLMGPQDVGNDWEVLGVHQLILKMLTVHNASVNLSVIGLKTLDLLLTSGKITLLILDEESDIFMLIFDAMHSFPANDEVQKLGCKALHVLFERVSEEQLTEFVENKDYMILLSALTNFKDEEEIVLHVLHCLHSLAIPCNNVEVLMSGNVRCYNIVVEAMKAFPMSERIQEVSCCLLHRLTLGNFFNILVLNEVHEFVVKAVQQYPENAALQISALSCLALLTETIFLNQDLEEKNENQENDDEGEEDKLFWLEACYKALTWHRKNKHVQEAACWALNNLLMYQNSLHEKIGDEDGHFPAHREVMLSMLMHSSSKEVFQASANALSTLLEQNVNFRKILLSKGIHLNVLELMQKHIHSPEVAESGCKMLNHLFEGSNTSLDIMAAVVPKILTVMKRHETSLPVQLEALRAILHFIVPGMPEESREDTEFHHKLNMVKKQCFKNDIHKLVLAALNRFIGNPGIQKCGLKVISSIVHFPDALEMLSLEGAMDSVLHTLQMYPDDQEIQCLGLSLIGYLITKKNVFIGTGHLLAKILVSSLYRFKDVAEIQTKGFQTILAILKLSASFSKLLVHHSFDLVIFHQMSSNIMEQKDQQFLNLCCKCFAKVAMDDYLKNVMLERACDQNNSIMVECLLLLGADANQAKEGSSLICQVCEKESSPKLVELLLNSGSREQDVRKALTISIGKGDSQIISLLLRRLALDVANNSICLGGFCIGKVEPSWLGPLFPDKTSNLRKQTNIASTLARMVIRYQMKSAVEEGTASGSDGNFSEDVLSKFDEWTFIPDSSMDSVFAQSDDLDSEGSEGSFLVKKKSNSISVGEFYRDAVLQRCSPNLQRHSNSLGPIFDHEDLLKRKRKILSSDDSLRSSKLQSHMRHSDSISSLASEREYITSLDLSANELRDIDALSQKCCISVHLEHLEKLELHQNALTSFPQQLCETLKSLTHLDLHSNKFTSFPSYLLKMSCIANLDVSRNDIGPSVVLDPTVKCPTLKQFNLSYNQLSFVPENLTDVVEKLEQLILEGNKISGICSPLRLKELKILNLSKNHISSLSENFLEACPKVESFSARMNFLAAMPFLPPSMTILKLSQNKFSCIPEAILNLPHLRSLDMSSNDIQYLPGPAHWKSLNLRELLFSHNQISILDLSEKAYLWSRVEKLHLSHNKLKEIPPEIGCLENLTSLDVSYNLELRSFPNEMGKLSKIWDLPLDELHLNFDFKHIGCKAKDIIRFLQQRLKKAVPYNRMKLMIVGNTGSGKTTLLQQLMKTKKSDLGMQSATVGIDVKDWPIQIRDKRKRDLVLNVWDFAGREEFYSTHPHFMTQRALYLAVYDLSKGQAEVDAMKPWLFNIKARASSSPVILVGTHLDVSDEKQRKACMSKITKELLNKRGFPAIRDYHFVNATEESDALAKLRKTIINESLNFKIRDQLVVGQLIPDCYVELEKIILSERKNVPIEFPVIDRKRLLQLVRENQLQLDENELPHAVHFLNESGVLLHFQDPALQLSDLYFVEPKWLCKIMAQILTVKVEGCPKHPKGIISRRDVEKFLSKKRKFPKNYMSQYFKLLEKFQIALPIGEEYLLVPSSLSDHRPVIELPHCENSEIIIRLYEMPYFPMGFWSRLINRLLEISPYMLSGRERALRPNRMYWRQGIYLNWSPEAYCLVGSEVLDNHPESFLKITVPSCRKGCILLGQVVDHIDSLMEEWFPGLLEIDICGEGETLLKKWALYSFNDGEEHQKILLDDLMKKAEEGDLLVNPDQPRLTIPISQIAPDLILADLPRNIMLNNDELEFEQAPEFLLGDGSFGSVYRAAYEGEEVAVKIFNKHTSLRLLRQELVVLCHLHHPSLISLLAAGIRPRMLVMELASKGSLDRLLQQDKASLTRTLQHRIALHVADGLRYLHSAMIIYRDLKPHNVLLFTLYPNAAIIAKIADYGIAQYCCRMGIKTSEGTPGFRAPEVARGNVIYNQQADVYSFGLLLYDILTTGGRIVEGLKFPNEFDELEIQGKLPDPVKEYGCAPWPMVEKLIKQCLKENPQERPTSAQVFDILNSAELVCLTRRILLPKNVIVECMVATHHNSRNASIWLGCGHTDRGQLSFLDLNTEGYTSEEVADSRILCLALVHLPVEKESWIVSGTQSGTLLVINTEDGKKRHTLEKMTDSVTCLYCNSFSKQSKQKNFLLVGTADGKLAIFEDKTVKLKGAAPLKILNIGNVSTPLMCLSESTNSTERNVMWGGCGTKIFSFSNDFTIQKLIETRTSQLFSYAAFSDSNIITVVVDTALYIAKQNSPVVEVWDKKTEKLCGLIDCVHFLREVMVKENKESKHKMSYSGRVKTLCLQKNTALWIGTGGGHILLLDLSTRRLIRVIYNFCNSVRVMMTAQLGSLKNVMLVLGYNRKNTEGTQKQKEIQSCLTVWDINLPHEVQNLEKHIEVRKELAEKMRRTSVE
T2 sequence (Q5S007 whole entry): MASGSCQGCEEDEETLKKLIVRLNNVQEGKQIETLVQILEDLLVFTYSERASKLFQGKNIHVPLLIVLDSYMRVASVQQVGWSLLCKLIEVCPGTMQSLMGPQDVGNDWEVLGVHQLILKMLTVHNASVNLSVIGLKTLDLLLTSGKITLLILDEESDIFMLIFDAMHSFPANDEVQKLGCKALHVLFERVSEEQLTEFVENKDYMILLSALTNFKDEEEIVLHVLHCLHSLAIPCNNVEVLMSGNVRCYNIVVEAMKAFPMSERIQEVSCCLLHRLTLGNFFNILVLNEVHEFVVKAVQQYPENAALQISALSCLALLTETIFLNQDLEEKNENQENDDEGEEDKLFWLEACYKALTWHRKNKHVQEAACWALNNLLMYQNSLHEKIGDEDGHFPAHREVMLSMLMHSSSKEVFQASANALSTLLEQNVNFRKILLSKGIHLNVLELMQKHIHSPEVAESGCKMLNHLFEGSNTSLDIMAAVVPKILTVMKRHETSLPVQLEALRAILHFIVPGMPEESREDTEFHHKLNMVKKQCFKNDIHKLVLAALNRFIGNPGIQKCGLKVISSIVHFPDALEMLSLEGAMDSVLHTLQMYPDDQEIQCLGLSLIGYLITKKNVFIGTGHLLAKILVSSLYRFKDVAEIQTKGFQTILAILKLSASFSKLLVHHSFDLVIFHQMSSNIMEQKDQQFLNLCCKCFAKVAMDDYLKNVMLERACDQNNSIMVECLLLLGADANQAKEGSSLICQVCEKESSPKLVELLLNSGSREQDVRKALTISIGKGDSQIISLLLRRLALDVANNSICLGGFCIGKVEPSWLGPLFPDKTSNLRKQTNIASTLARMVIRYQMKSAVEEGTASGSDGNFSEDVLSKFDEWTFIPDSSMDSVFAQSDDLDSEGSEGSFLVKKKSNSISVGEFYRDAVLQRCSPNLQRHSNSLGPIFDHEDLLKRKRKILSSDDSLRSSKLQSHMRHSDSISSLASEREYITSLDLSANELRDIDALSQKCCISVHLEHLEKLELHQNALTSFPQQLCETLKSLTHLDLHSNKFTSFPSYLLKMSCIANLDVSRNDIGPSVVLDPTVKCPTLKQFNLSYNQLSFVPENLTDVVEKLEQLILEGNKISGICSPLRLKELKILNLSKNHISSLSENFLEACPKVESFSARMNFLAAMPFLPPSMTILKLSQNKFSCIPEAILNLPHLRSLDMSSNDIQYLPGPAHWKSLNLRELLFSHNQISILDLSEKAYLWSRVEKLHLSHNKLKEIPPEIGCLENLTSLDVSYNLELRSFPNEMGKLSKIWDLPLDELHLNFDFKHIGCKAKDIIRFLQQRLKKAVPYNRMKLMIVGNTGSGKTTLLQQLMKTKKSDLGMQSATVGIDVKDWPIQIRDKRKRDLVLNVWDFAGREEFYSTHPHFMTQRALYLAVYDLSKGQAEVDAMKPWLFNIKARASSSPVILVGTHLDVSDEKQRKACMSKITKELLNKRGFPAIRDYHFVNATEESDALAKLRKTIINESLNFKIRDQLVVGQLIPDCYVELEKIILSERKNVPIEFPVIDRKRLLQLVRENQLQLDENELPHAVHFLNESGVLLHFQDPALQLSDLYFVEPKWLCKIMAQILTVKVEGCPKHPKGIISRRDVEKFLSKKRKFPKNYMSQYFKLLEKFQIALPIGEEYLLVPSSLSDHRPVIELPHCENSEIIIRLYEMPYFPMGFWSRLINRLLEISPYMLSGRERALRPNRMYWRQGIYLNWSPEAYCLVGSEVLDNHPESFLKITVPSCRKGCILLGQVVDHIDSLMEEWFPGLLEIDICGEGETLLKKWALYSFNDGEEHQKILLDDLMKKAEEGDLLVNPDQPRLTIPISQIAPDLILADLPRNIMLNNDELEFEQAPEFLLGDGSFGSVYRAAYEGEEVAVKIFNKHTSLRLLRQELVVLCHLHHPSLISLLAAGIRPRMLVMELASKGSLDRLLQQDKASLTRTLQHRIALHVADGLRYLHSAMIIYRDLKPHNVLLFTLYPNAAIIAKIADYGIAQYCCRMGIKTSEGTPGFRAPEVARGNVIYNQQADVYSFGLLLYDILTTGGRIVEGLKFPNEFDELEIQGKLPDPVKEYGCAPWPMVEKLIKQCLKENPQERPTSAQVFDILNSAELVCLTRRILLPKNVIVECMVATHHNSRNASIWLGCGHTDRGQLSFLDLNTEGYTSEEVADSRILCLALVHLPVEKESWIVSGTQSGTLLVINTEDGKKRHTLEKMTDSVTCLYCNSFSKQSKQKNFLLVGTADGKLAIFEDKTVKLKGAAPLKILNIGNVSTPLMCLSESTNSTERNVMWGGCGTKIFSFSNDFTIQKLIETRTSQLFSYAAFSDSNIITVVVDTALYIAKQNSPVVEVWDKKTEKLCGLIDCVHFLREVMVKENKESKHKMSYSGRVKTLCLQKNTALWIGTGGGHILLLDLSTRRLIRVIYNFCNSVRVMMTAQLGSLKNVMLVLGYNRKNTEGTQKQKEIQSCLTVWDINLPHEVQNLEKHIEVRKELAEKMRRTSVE

Compound: Cc1nc(N2CCOC(C(C)O)C2)cc(-n2ncc3cc(C)c(C4CCN(C5CCOC5)CC4)cc32)n1 (single isomer, unassigned) [Example E138, 1-(4-(2-methyl-6-(5-methyl-6-(1-(tetrahydrofuran-3-yl)piperidin-4-yl)-1H-indazol-1-yl)pyrimidin-4-yl)morpholin-2-yl)ethanol]
- IC50 [1]: ≤ 100 nM and 25.1 nM
- IC50 [2]: ≤ 100 nM and 63.1 nM

Compound: [2H]c1nn(-c2cc(N3CCO[C@@H](CO)C3)nc(C)n2)c2cc(C3CCN([C@H]4CCOC4)CC3)c(C)cc12 [Example E95, ((R)-4-(6-(3-deuterium-5-methyl-6-(1-((S)-tetrahydrofuran-3-yl)piperidin-4-yl)-1H-indazol-1-yl)-2-methylpyrimidin-4-yl)morpholin-2-yl)methanol]
- IC50 [1]: ≤ 100 nM and 39.8 nM
- IC50 [2]: ≤ 1000 nM

Compound: Cc1nc(N2CCOC(C(C)O)C2)cc(-n2ncc3cc(C)c(C4CCN(C5CCOC5)CC4)cc32)n1 (single isomer, unassigned) [Example E136, 1-(4-(2-methyl-6-(5-methyl-6-(1-(tetrahydrofuran-3-yl)piperidin-4-yl)-1H-indazol-1-yl)pyrimidin-4-yl)morpholin-2-yl)ethanol]
- IC50 [1]: ≤ 100 nM
- IC50 [2]: ≤ 1000 nM

Compound: Cc1nc(N2CCO[C@H](CO)C2)cc(-n2ncc3cc(C)c(C4CCN(C5CCOC5)CC4F)cc32)n1 (single isomer, unassigned) [Example E106]
- IC50 [1]: ≤ 100 nM
- IC50 [2]: ≤ 1000 nM

Compound: Cc1nc(N2CCO[C@H](CO)C2)cc(-n2ncc3cc(C)c(C4CCN(C5CCOC5)CC4)cc32)n1 (single isomer, unassigned) [Example E1]
- IC50 [1]: 79.4 nM
- IC50 [2]: ≤ 100 nM and 126 nM

Compound: COc1nc(N2CC(O)C2)cc(-n2ncc3cc(Cl)c(C4CCN(C5CCOC5)CC4)cc32)n1 (single isomer, unassigned) [Example E30, 1-(6-(5-Chloro-6-(1-(tetrahydrofuran-3-yl)piperidin-4-yl)-1H-indazol-1-yl)-2-methoxy-pyrimidin-4-yl)azetidin-3-ol]
- IC50 [1]: ≤ 1000 nM
- IC50 [2]: ≤ 100 nM

Compound: Cc1nc(N2CCOC(C(C)O)C2)cc(-n2ncc3cc(C)c(C4CCN(C5CCOC5)CC4)cc32)n1 (single isomer, unassigned) [Example E137, 1-(4-(2-methyl-6-(5-methyl-6-(1-(tetrahydrofuran-3-yl)piperidin-4-yl)-1H-indazol-1-yl)pyrimidin-4-yl)morpholin-2-yl)ethanol]
- IC50 [1]: ≤ 100 nM
- IC50 [2]: ≤ 1000 nM

Compound: COc1nc(N2CCO[C@@H](CO)C2)cc(-n2ncc3cc(C)c(C4CCN(C5CCOC5)CC4F)cc32)n1 (single isomer, unassigned) [Example E120]
- IC50 [1]: ≤ 10 nM
- IC50 [2]: ≤ 10 nM

Compound: Cc1nc(N[C@H]2C[C@@H](O)C2)cc(-n2ncc3cc(C)c(C4CCN(C5CCOC5)CC4)cc32)n1 (single isomer, unassigned) [Example E134, Cis-3-((2-methyl-6-(5-methyl-6-(1-(tetrahydrofuran-3-yl)piperidin-4-yl)-1H-indazol-1-yl)pyrimidin-4-yl)amino)cyclobutanol]
- IC50 [1]: ≤ 100 nM
- IC50 [2]: ≤ 100 nM

Compound: Cc1nc(N2CCOC(C(C)O)C2)cc(-n2ncc3cc(C)c(C4CCN(C5CCOC5)CC4)cc32)n1 (single isomer, unassigned) [Example E140, 1-(4-(2-methyl-6-(5-methyl-6-(1-(tetrahydrofuran-3-yl)piperidin-4-yl)-1H-indazol-1-yl)pyrimidin-4-yl)morpholin-2-yl)ethanol]
- IC50 [1]: ≤ 100 nM
- IC50 [2]: ≤ 1000 nM

Compound: [2H]c1nn(-c2cc(N3CCO[C@@H](CO)C3)nc(C)n2)c2cc(C3CCN([C@@H]4CCOC4)CC3)c(C)cc12 [Example E94, ((R)-4-(6-(3-deuterium-5-methyl-6-(1-((R)-tetrahydrofuran-3-yl)piperidin-4-yl)-1H-indazol-1-yl)-2-methylpyrimidin-4-yl)morpholin-2-yl)methanol]
- IC50 [1]: ≤ 100 nM
- IC50 [2]: ≤ 1000 nM
